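Compound exposure: 48 hours, 5 concentrations, 96-well plates. GI50 marks 50% less growth. At the TGI there is no net growth.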
Experiments:
Test in all cases: inhibition of tumour cell growth, NCI panel, 48 h
UO-31 renal = system: UO-31 renal
SF-539 CNS = system: SF-539 CNS
OVCAR-3 ovarian = system: OVCAR-3 ovarian
SF-295 CNS = system: SF-295 CNS
NCI-H226 lung = system: NCI-H226 lung
COLO 205 colon = system: COLO 205 colon
OVCAR-5 ovarian = system: OVCAR-5 ovarian
MDA-MB-435 = system: MDA-MB-435
SF-268 CNS = system: SF-268 CNS
HOP-92 NSCLC = system: HOP-92 NSCLC
KM12 colon = system: KM12 colon
TK-10 renal = system: TK-10 renal
ACHN renal = system: ACHN renal
RXF 393 renal = system: RXF 393 renal
EKVX NSCLC = system: EKVX NSCLC
OVCAR-4 ovarian = system: OVCAR-4 ovarian
A549 NSCLC = system: A549 NSCLC
SN12C renal = system: SN12C renal
A498 renal = system: A498 renal
MDA-MB-231 breast = system: MDA-MB-231 breast
PC-3 prostate = system: PC-3 prostate
OVCAR-8 ovarian = system: OVCAR-8 ovarian
SW-620 colon = system: SW-620 colon
CAKI-1 renal = system: CAKI-1 renal
U251 CNS = system: U251 CNS
MDA-N = system: MDA-N
IGROV1 ovarian = system: IGROV1 ovarian
HT29 colon = system: HT29 colon
SNB-75 CNS = system: SNB-75 CNS
NCI-H23 lung = system: NCI-H23 lung
M14 melanoma = system: M14 melanoma
SNB-19 CNS = system: SNB-19 CNS
HCT-116 colon = system: HCT-116 colon
SK-MEL-5 melanoma = system: SK-MEL-5 melanoma
HCT-15 colon = system: HCT-15 colon
DU-145 prostate = system: DU-145 prostate
NCI/ADR-RES ovarian = system: NCI/ADR-RES ovarian
NCI-H460 lung = system: NCI-H460 lung
UACC-62 melanoma = system: UACC-62 melanoma
MALME-3M melanoma = system: MALME-3M melanoma
786-0 renal = system: 786-0 renal
MCF7 breast = system: MCF7 breast
K-562 leukemia = system: K-562 leukemia
SK-MEL-2 melanoma = system: SK-MEL-2 melanoma
HOP-62 NSCLC = system: HOP-62 NSCLC
SK-MEL-28 melanoma = system: SK-MEL-28 melanoma
SK-OV-3 ovarian = system: SK-OV-3 ovarian
HCC-2998 colon = system: HCC-2998 colon
BT-549 breast = system: BT-549 breast
NCI-H522 lung = system: NCI-H522 lung
MOLT-4 leukemia = system: MOLT-4 leukemia
CCRF-CEM leukemia = system: CCRF-CEM leukemia
LOX IMVI melanoma = system: LOX IMVI melanoma
T-47D breast = system: T-47D breast
RPMI-8226 leukemia = system: RPMI-8226 leukemia
UACC-257 melanoma = system: UACC-257 melanoma
HS 578T breast = system: HS 578T breast
HL-60(TB) leukemia = system: HL-60(TB) leukemia
SR leukemia = system: SR leukemia

CC1(C)CC(=O)C(C(CC(c2ccccc2)c2cc3c(cc2O)OCO3)C2=C(O)CC(C)(C)CC2=O)=C(O)C1 (stereo unspecified)
TGI (UO-31 renal): > 10 µM | TGI (SF-539 CNS): > 10 µM | TGI (OVCAR-3 ovarian): > 10 µM | TGI (SF-295 CNS): > 10 µM | TGI (NCI-H226 lung): > 10 µM | TGI (COLO 205 colon): > 10 µM | TGI (OVCAR-5 ovarian): > 10 µM | TGI (MDA-MB-435): > 10 µM | TGI (SF-268 CNS): > 10 µM | TGI (HOP-92 NSCLC): > 10 µM | TGI (KM12 colon): > 10 µM | TGI (TK-10 renal): > 10 µM | TGI (ACHN renal): > 10 µM | TGI (RXF 393 renal): > 10 µM | TGI (EKVX NSCLC): > 10 µM | TGI (OVCAR-4 ovarian): > 10 µM | TGI (A549 NSCLC): > 10 µM | TGI (SN12C renal): > 10 µM | TGI (A498 renal): > 10 µM | TGI (MDA-MB-231 breast): > 10 µM | TGI (PC-3 prostate): > 10 µM | TGI (OVCAR-8 ovarian): > 10 µM | TGI (SW-620 colon): > 10 µM | TGI (CAKI-1 renal): > 10 µM | TGI (U251 CNS): > 10 µM | TGI (MDA-N): > 10 µM | TGI (IGROV1 ovarian): > 10 µM | TGI (HT29 colon): > 10 µM | TGI (SNB-75 CNS): > 10 µM | TGI (NCI-H23 lung): > 10 µM | TGI (M14 melanoma): > 10 µM | TGI (SNB-19 CNS): > 10 µM | TGI (HCT-116 colon): > 10 µM | TGI (SK-MEL-5 melanoma): > 10 µM | TGI (HCT-15 colon): > 10 µM | TGI (DU-145 prostate): > 10 µM | TGI (NCI/ADR-RES ovarian): > 10 µM

CC(=O)ON1CCCC(P(=O)(OCCSC(=O)C(C)(C)C)OCCSC(=O)C(C)(C)C)C1=O (stereo unspecified)
GI50 (UO-31 renal): 0.413 µM | TGI (UO-31 renal): 11.3 µM | GI50 (SF-539 CNS): 3.96 µM | TGI (SF-539 CNS): 27.4 µM | GI50 (NCI-H460 lung): 1.28 µM | TGI (NCI-H460 lung): 19.9 µM | GI50 (OVCAR-3 ovarian): 1.19 µM | TGI (OVCAR-3 ovarian): 20.5 µM | GI50 (SF-295 CNS): 12.7 µM | TGI (SF-295 CNS): > 100 µM | GI50 (NCI-H226 lung): 2.27 µM | TGI (NCI-H226 lung): 26.4 µM | GI50 (COLO 205 colon): 3.88 µM | TGI (COLO 205 colon): > 100 µM | GI50 (OVCAR-5 ovarian): 6.46 µM | TGI (OVCAR-5 ovarian): > 100 µM | GI50 (UACC-62 melanoma): 1.57 µM | TGI (UACC-62 melanoma): 8.58 µM | GI50 (MALME-3M melanoma): 0.537 µM | TGI (MALME-3M melanoma): 9.05 µM | GI50 (786-0 renal): 1.41 µM | TGI (786-0 renal): 90.4 µM | GI50 (MDA-MB-435): 3.02 µM | TGI (MDA-MB-435): 88.6 µM | GI50 (SF-268 CNS): 2.29 µM | TGI (SF-268 CNS): 60.9 µM | GI50 (HOP-92 NSCLC): 0.87 µM | TGI (HOP-92 NSCLC): 31.2 µM | GI50 (KM12 colon): 1.21 µM | TGI (KM12 colon): 13.8 µM | GI50 (MCF7 breast): 2.01 µM | TGI (MCF7 breast): 47.5 µM | GI50 (TK-10 renal): 3.57 µM | TGI (TK-10 renal): 93.3 µM | GI50 (K-562 leukemia): 0.674 µM | TGI (K-562 leukemia): > 100 µM | GI50 (ACHN renal): 1.75 µM | TGI (ACHN renal): 30.4 µM | GI50 (SK-MEL-2 melanoma): 4.47 µM | TGI (SK-MEL-2 melanoma): 40 µM | GI50 (RXF 393 renal): 0.764 µM | TGI (RXF 393 renal): 7.02 µM | GI50 (HOP-62 NSCLC): 3.21 µM | TGI (HOP-62 NSCLC): > 100 µM | GI50 (SK-MEL-28 melanoma): 1.56 µM | TGI (SK-MEL-28 melanoma): 15.5 µM | GI50 (SK-OV-3 ovarian): 2.86 µM | TGI (SK-OV-3 ovarian): 88 µM | GI50 (EKVX NSCLC): 2.1 µM | TGI (EKVX NSCLC): 49.6 µM | GI50 (HCC-2998 colon): 1.42 µM | TGI (HCC-2998 colon): 12.4 µM | GI50 (BT-549 breast): 0.979 µM | TGI (BT-549 breast): 7.24 µM | GI50 (OVCAR-4 ovarian): 1.58 µM | TGI (OVCAR-4 ovarian): 26.4 µM | GI50 (A549 NSCLC): 1.52 µM | TGI (A549 NSCLC): > 100 µM | GI50 (SN12C renal): 0.36 µM | TGI (SN12C renal): 15 µM | GI50 (A498 renal): 0.304 µM | TGI (A498 renal): 3.49 µM | GI50 (MDA-MB-231 breast): 1.34 µM | TGI (MDA-MB-231 breast): 87.8 µM | GI50 (NCI-H522 lung): 0.659 µM | TGI (NCI-H522 lung): 20.9 µM | GI50 (PC-3 prostate): 3.51 µM | TGI (PC-3 prostate): > 100 µM | GI50 (MOLT-4 leukemia): 0.854 µM | TGI (MOLT-4 leukemia): 11.5 µM | GI50 (OVCAR-8 ovarian): 0.691 µM | TGI (OVCAR-8 ovarian): > 100 µM | GI50 (SW-620 colon): 1.59 µM | TGI (SW-620 colon): > 100 µM | GI50 (CAKI-1 renal): 2.44 µM | TGI (CAKI-1 renal): > 100 µM | GI50 (CCRF-CEM leukemia): 0.283 µM | TGI (CCRF-CEM leukemia): 67.4 µM | GI50 (U251 CNS): 1.02 µM | TGI (U251 CNS): 64.3 µM | GI50 (LOX IMVI melanoma): 1.22 µM | TGI (LOX IMVI melanoma): 95.5 µM | GI50 (T-47D breast): 2.08 µM | TGI (T-47D breast): > 100 µM | GI50 (IGROV1 ovarian): 0.808 µM | TGI (IGROV1 ovarian): 6.27 µM | GI50 (HT29 colon): 1.28 µM | TGI (HT29 colon): > 100 µM | GI50 (SNB-75 CNS): 1.4 µM | TGI (SNB-75 CNS): 23.3 µM | GI50 (NCI-H23 lung): 3.3 µM | TGI (NCI-H23 lung): 28.5 µM | GI50 (RPMI-8226 leukemia): 1.45 µM | TGI (RPMI-8226 leukemia): 11.3 µM | GI50 (M14 melanoma): 2.11 µM | TGI (M14 melanoma): 24.9 µM | GI50 (SNB-19 CNS): 1.76 µM | TGI (SNB-19 CNS): 21.9 µM | GI50 (UACC-257 melanoma): 6.9 µM | TGI (UACC-257 melanoma): 81.1 µM | GI50 (HS 578T breast): 1.53 µM | TGI (HS 578T breast): 8.94 µM | GI50 (HCT-116 colon): 0.613 µM | TGI (HCT-116 colon): 12.7 µM | GI50 (SK-MEL-5 melanoma): 1.21 µM | TGI (SK-MEL-5 melanoma): 4.15 µM | GI50 (HCT-15 colon): 0.973 µM | TGI (HCT-15 colon): 76.1 µM | GI50 (DU-145 prostate): 3.08 µM | TGI (DU-145 prostate): > 100 µM | GI50 (HL-60(TB) leukemia): 1.68 µM | TGI (HL-60(TB) leukemia): 11.3 µM | GI50 (SR leukemia): 0.571 µM | TGI (SR leukemia): 64.2 µM | GI50 (NCI/ADR-RES ovarian): 1.35 µM | TGI (NCI/ADR-RES ovarian): 12.4 µM

CC1OC(c2ccc3c(OCc4ccccc4)cccc3c2O)CC(OCc2ccccc2)[C@H]1OCc1ccccc1 (stereo partly specified)
TGI (SF-295 CNS): > 10 µM | TGI (COLO 205 colon): > 10 µM | TGI (UACC-62 melanoma): > 10 µM | TGI (MALME-3M melanoma): > 10 µM | TGI (786-0 renal): > 10 µM | TGI (SF-268 CNS): > 10 µM | TGI (KM12 colon): > 10 µM | TGI (MCF7 breast): > 10 µM | TGI (TK-10 renal): > 10 µM | TGI (K-562 leukemia): > 10 µM | TGI (RXF 393 renal): > 10 µM | TGI (HOP-62 NSCLC): > 10 µM | TGI (SK-MEL-28 melanoma): > 10 µM | TGI (SK-OV-3 ovarian): > 10 µM | TGI (EKVX NSCLC): > 10 µM | TGI (HCC-2998 colon): > 10 µM | TGI (A549 NSCLC): > 10 µM | TGI (SN12C renal): > 10 µM | TGI (MDA-MB-231 breast): > 10 µM | TGI (PC-3 prostate): > 10 µM | TGI (MOLT-4 leukemia): > 10 µM | TGI (OVCAR-8 ovarian): > 10 µM | TGI (SW-620 colon): > 10 µM | TGI (CAKI-1 renal): > 10 µM | TGI (CCRF-CEM leukemia): > 10 µM | TGI (MDA-N): > 10 µM | TGI (T-47D breast): > 10 µM | TGI (IGROV1 ovarian): > 10 µM | TGI (HT29 colon): > 10 µM | TGI (SNB-75 CNS): > 10 µM | TGI (NCI-H23 lung): > 10 µM | TGI (RPMI-8226 leukemia): > 10 µM | TGI (M14 melanoma): > 10 µM | TGI (UACC-257 melanoma): > 10 µM | TGI (SK-MEL-5 melanoma): > 10 µM | TGI (HCT-15 colon): > 10 µM | TGI (DU-145 prostate): > 10 µM | TGI (HL-60(TB) leukemia): > 10 µM
